Source: patent US20170280722A1, “COMPOSITIONS AND METHODS FOR CONTROL OF SAND FLIES AND OTHER BLOOD SUCKING INSECTS” (GENESIS LABORATORIES, INC., priority 2010, published 2017)

Columns and labels:
[1] = test system: P. argentipes 1st instar larvae; assay: Larval bioassay with feces of insecticide treated R. rattus (feed through); type: in vivo; details: for Mean ± SEM survival (days) of P. arg larvae post-exposure / P. argentipes larvae mortality (%): feces of R. rattus day-1 post treatment
Description: In the first study, a feed through study comparing diflubenzuron, fipronil, ivermectin, and eprinomectin was conducted on rats (Rattus rattus). Fecal samples were collected after three (3) consecutive days of administration of the trial products. The efficacy of the drugs administered during the blind study underwent testing in larval bioassays with P. argentipes 1st instar larvae. Commercially available chicken feed was mixed with the appropriate concentrations of each insecticide compound and used as is in the trial.
Twelve (12) locally purchased rats (Rattus rattus) of mixed sex were utilized in a small study testing the efficacy of four feed through insecticides. Five treatment groups of two rats each were randomly identified and fed diets consisting of locally available chicken feed treated with one of the following compounds: diflubenzuron (0.048%), fipronil (0.015%), ivermectin (0.025%), and eprinomectin (0.01% and 0.025%). Two rats served as control and were fed only chicken feed. Rats were fed 20 g of their assigned diet daily at the same time, with daily consumption and spillage calculated for a period of three (3) days. Sand fly analyses were conducted simultaneously.
[…] Collected feces were dried at approximately 40° C. in an oven then ground into a fine powder utilizing a pestle and mortar and frozen at −20° C. until larval bioassays were initiated.
Larval bioassay pots were prepared using 48 mm, 100 g round Dibbi jars. Dishes were prepared by burning several small holes into the bottom of the dish with a soldering iron and filling them with a small layer of plaster (¼ to ½ inch depth). Approximately 15-20 holes were punctured into the lids using 24 gauge needles. For simpler mortality counting, pots were quartered and each quadrant numbered using an ultra fine black Sharpie.
For each individual post-treatment bioassays, thirteen (13) dishes were loaded with 10 day old 1st instar P. argentipes larvae; twelve (12) pots were provided with approximately 0.005 g of the treated feces, with two sample pots per treated bandicoot rat, and one overall control sample fed only standard larval diet. See Table 1 for sample/treatment correlations. Larvae were loaded into bioassay pots and provided with their designated treatment sample. Mortality counts of larvae were conducted every 24 hours post-treatment until 100% mortality, or pupation, was reached.

[2] = cited from earlier work
[3] = test system: P. papatasi larvae; assay: Larval bioassay with feces of sand rats fed imidacloprid diet; type: in vivo
Description: A second trial was carried out using sand rats (Psammomys obesus) as the carrier of sand flies (P. papatasi) and imidacloprid as the insecticide. This rodent species was targeted since it serves as the source of blood meals for adult sand flies and its feces serves as a platform for larval development in Middle East ecosystems.
(§1) The test insecticide, imidacloprid at 250 ppm (0.025%) was incorporated into the feed together with orange, yellow, or green dye and fed to rats housed in standard laboratory caging. The treatment groups consisted of 6 males and 9 females; Controls: 3 males and 4 females with a body weight between 125-250 g.
(§2) DESIGN—Five sand rats were provided the reformulated diet for each of the treatment levels (50 ppm, 100 ppm, 250 ppm). Five sand rats were provided with control diets without imidacloprid. Two additional rats were provided with control diets containing green dye.
(§3) Feces were collected from the Alpha-Dri bedding for the last 5 days of the 7 day treatment period. Feces were weighed and transferred to a plastic bag labeled with the animal's cage identification number and stored frozen at −20° C.
Bioassays of the larval groups comprised: four imidacloprid treatments (0, 50, 100, 250 ppm) (number of replicates per assay n=5), one control group (n=8), and one green dye treatment (n=2). These bioassays were conducted with 1st and 2-3rd instar larvae and were repeated three times. Bioassays were conducted in 6 well culture plates (Corning, Inc) with 5 ml of plaster of Paris in the bottom of each well. The plaster was saturated with distilled water before the experiment, and was blotted with filter paper to remove standing water immediately before use. The effect of imidacloprid treatment on 1st and 2nd-3rd instar larvae was tested. The control group was provided using standard larval diet. This allowed comparison of sand fly survival between those feeding on feces from sand rats that fed on non treated feed and those fed on standard sand fly diet. First instar larvae were obtained by adding 50 eggs to each well and allowed to hatch and fed on regular diet for 2-3 days. At this time ca. 0.1 g of crushed pellets or control feed was added. Second-3rd instar larvae were obtained by letting 1st instar larvae grow on standard diet in the wells until moulted. At this, time crushed pellets or control feed (0.1 g) was added. […] The wells of the plate were covered with parafilm which was punctured with a needle to allow for ventilation. The wells were kept in a humidified room (26° C./75% RH) inside a covered tube which contained a saturated sponge. The container was placed in an environmental chamber at 28 C, 90% RH, and a photoperiod of 14:10 (L:D) h. […] Alimentation was noted by observation of the presence of frass in the vials and dark material in the guts of the larvae.

[4] = Acceptance and tolerance of imidacloprid diet by sand rats; type: in vivo, Psammomys obesus
From the text: as §1, §2, §3

Compound: O=C(NC(=O)c1c(F)cccc1F)Nc1ccc(Cl)cc1 [diflubenzuron]
- Mean ± SEM survival (days) of P. arg larvae post-exposure ([1]; 480 ppm): 9.75 ± 0.71 days
- P. argentipes larvae mortality (%) ([1]; 480 ppm): 100%

Compound: eprinomectin
- Mean ± SEM survival (days) of P. arg larvae post-exposure ([1]; 100 ppm): 12.65 ± 0.70 days
- P. argentipes larvae mortality (%) ([1]; 100 ppm): 100%
- Mean ± SEM survival (days) of P. arg larvae post-exposure ([1]; 250 ppm): 10.70 ± 0.38 days
- P. argentipes larvae mortality (%) ([1]; 250 ppm): 100%

Compound: CC1(C)C(C=C(Cl)Cl)C1C(=O)OCc1cccc(Oc2ccccc2)c1 (stereo not shown) [permethrin]
- Time within which the majority of the product is excreted ([2]; rodents, oral treatment): ≤ 48 h
- Absorption by the skin ([2]; topical): not readily absorbed by the skin

Compound: ivermectin
- Mean ± SEM survival (days) of P. arg larvae post-exposure ([1]; 250 ppm): 7.40 ± 0.11 days
- P. argentipes larvae mortality (%) ([1]; 250 ppm): 100%
- Day of observation by which 100% larval mortality was reached ([1]; feces of R. rattus fed 0.025% in feed): ≤ 8 days

Compound: O=[N+]([O-])NC1=NCCN1Cc1ccc(Cl)nc1 [imidacloprid]
- Survivorship for 1st instar larvae ([3]; by day 5, feces from sand rats administered 100 ppm): < 5%
- Survivorship for 1st instar larvae ([3]; by day 5, feces from sand rats administered 250 ppm): < 5%
- Survivorship for 2nd/3rd instar larvae ([3]; by day 7, feces from sand rats administered 250 ppm): 10%
- Larval mortality ([3]; by seven days, feces from diets containing 250 ppm): 90%
- Larvicidal effect of feces for 1st instar larvae ([3]; sand rats fed diets of 100 ppm and 250 ppm): rapidly and highly larvicidal
- Difference in fecal production between treatment groups ([4]; P=0.1199): no significant difference
- Health of sand rats on diet ([4]; diets 50, 100, 250 ppm, 7 day treatment): without any apparent health abnormalities
- Residue in blood ([2]; three days post oral treatment): zero residue
